For the assay, the target named is T1, rα3β2 nAChRs expressed in Xenopus laevis oocytes (Rattus norvegicus, UniProt P04757+P12390).
T1 construct: expressed in transfected cells; host or cells: Xenopus laevis oocytes, injected with α3 and β2 mRNA; clones from Dr. Steven Heinemann, Salk Institute
Nature of the assay: cell-based. To be noted: SEM.

Bridge positions count the residues as written; N and C are the ends. Peptide text beside a SMILES is read from it.

Drawing on paper PMC6950571 (Marine Drugs, 2019), this text covers IC50 for one compound.

T1 sequence (P04757 26-499 limits assumed): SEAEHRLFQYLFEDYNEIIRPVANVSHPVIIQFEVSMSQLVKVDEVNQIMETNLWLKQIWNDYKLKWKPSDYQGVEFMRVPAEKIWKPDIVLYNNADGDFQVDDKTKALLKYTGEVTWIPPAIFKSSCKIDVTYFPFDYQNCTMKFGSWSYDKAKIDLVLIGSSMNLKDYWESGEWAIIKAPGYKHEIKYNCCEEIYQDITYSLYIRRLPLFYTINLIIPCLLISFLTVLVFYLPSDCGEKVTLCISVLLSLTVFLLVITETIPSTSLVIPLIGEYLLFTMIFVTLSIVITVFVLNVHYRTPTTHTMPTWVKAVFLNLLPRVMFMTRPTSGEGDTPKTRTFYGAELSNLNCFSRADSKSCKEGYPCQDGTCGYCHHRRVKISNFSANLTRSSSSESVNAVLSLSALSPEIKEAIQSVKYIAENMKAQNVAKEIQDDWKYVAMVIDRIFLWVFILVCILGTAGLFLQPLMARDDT
T1 sequence (P12390 25-500 limits assumed): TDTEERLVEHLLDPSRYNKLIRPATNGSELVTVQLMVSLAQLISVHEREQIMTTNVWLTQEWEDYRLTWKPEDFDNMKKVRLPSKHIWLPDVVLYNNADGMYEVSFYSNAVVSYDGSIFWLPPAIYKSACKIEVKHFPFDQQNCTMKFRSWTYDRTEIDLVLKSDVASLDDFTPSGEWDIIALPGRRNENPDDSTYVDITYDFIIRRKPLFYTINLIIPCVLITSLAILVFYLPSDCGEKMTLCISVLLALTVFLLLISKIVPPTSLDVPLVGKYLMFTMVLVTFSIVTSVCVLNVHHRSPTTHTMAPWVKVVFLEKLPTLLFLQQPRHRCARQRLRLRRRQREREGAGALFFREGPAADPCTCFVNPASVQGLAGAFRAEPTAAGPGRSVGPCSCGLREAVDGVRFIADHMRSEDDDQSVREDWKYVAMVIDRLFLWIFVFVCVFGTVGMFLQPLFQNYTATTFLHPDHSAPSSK

`NCCCC[C@@H]1NC(=O)[C@H](CO)NC(=O)[C@H](CO)NC(=O)[C@H](CO)NC(=O)[C@H](Cc2c[nH]c3ccccc23)NC(=O)[C@H](Cc2ccc(O)cc2)NC(=O)[C@@H]2CSSC[C@H](NC(=O)[C@@H](NC(=O)[C@@H](N)Cc3c[nH]c4ccccc34)CSSC[C@@H](C(=O)O)NC(=O)[C@H](Cc3c[nH]c4ccccc34)NC1=O)C(=O)N[C@@H](CO)C(=O)N[C@@H](Cc1ccc(O)cc1)C(=O)N1CCC[C@H]1C(=O)NCC(=O)N2` [KTM] (H-WCCSYPGCYWSSSKWC-OH; disulfide 2-16, 3-8) registered an IC50 of 0.19 ± 0.02 nM.

The term IC50 denotes the concentration that gives 50% inhibition. High values mean a need for much substance, low ones inhibition by little substance.
